# According to patent publication US20180099937A1, “NOVEL ARYL-CYANOGUANIDINE COMPOUNDS” (Bayer Pharma Aktiengesellschaft, priority 2015, published 2018):
# Target: SMYD2 (Homo sapiens, UniProt Q9NRG4)
# Assay: Scintillation Proximity Assay (SPA) for detection of SMYD2 enzymatic inhibition
# Assay type: biochemical
# Set-up: The SMYD2 full length enzyme was produced in-house by expression (with an N-terminal 6× His tag) in E. coli; 6xHis (N); made in house; host or cells: E. coli
# Conditions: SMYD2 full length enzyme, p53 Peptide substrate 1.0 μM, 3H-SAM 60 nM; read-out: IC50 [mol/l] (SPA Assay)
# From the text: 1.1 Scintillation Proximity Assay (SPA) for Detection of SMYD2 Enzymatic Inhibition
# SMYD2 inhibitory activities of the compounds described in the present invention were quantified using a scintillation proximity assay (SPA) which measures methylation by the enzyme of the synthetic, biotinylated peptide Btn-Ahx-[…]—Amid×TFA (Biosyntan) derived from p53 and referred to from here on as “p53 Peptide”. The SMYD2 full length enzyme was produced in-house by expression (with an N-terminal 6× His tag) in E. coli and purification by affinity chromatography on a Ni-NTA Sepharose column followed by a size exclusion chromatography step on a Superdex 200 16/60 column (GE Healthcare).
# In a typical assay 11 different concentrations of each compound (0.1 nM, 0.33 nM, 1.1 nM, 3.8 nM, 13 nM, 44 nM, 0.15 μM, 0.51 μM, 1.7 μM, 5.9 μM and 20 μM) were tested in duplicate within the same microtiter plate. To this end, 100-fold concentrated compound solutions (in DMSO) were previously prepared by serial dilution (1:3.4) of 2 mM stocks in a clear low volume 384-well source microliter plate (Greiner Bio-One), from which 50 nl of compound solutions were transferred into a white low volume test microtiter plate from the same supplier. Subsequently, 2.5 μl SMYD2 in aqueous assay buffer [50 mM Tris/HCl pH 9.0 (AppliChem), 1 mM dithiothreitol (DTT, Sigma), 0.01% (w/v) bovine serum albumine (BSA, Sigma), 0.0022% (v/v) Pluronic (Sigma)] were added to the compounds in the test plate to a final enzyme concentration of —typically—3 nM (this parameter was adjusted depending on the activity of the enzyme lot in order to be within the linear dynamic range of the assay). The samples were then incubated for 15 min at 22° C. to allow pre-equilibration of the putative enzyme-inhibitor complexes before the start of the methylation reaction, which was initiated by the addition of 2.5 μl 2-fold concentrated solution (in assay buffer) of titriated S-Adenosyl-L-Methionine (3H-SAM, Perkin Elmer, final concentration: 60 nM) and p53 Peptide substrate (final concentration: 1.0 μM). The resulting mixture (5 μl final volume) was shortly centrifuged (2 min., 1500 rpm) and incubated at 22° C. during 30 min. Thereupon the reaction was stopped by adding 3 μl of Streptavidin PS SPA imaging beads (Perkin Elmer, final concentration of 3.12 μg/μl) and “cold” SAM (AK Scientific, 25 μM final concentration) for non-specific binding reduction. Plates containing the stopped reaction were sealed with transparent adhesive foil (Perkin Elmer), centrifuged (2 min., 1500 rpm), and further incubated for —at least—1 h at RT (or overnight at 4° C.) in order to allow the SPA signals to develop. Subsequently, the amount of product was evaluated by measuring the energy transfer from the β-particles emitted by the 3H-labeled substrate to the Europium scintillator co-polymerized in the polystyrene matrix of the PS imaging beads, using the standard settings for this purpose of a Viewlux (Perkin-Elmer) CCD plate imaging device (emission filter 613/55 (IFP). The resulting scintillation counts were taken as indicator for the amount of methylated peptide per well. The data were normalised using two sets of control wells (typically 16 each) for high−(=enzyme reaction with DMSO instead of test compound=0% =Minimum inhibition) and low−(=all assay components without enzyme=100% =Maximum inhibition) SMYD2 activity. IC50 values were calculated by fitting the normalized inhibition data to a 4-parameter logistic equation using the “Screener” analysis software from Genedata.
# Sequence of SMYD2 (Q9NRG4 whole entry): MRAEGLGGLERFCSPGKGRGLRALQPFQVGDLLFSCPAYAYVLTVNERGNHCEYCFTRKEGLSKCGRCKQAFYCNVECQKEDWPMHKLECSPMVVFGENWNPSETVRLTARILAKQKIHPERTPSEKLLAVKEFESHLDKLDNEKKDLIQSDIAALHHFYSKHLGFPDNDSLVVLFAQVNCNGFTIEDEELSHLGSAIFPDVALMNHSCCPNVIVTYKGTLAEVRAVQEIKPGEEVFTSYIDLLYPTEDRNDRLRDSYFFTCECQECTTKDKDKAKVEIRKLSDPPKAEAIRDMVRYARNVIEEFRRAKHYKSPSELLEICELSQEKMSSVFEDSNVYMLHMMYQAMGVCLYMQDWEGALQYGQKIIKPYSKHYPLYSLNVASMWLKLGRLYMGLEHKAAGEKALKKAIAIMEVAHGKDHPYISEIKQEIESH
row,Structure (SMILES),IC50
1,"CCN(C(=O)[C@H]1CCCN1)C1CN(/C(=N\C#N)Nc2cc(OC)ccc2C)N=C1c1ccc(Cl)c(Cl)c1 (mixture of isomers) [Example 34, N-{1-[N′-Cyano-N-(5-methoxy-2-methylphenyl)carbamimidoyl]-3-(3,4-dichlorophenyl)-4,5-dihydro-1H-pyrazol-4-yl}-N-ethyl-D-prolinamide]",615 nM
2,"CCN(C(=O)[C@H]1CCCN1)C1CN(/C(=N\C#N)Nc2cccc(OCC(F)(F)F)c2)N=C1c1ccc(Cl)c(Cl)c1 (mixture of isomers) [Example 35, N-[1-{N′-Cyano-N-[3-(2,2,2-trifluorelethoxy)phenyl]carbamimidayl}-3-(3,4-dichlorophenyl)-4,5-dihydro-1H-pyrazol-4-yl]-N-ethyl-D-prolinamide]",505 nM
3,"CCN(C(=O)[C@H]1CCCN1)C1CN(/C(=N\C#N)Nc2cccc(OC(F)F)c2)N=C1c1ccc(Cl)c(C)c1 (mixture of isomers) [Example 37, N-[3-(4-Chloro-3-methylphenyl)-1-{N′-cyano-N-[3-(difluoromethoxy)phenyl]carbamimidoyl}-4,5-dihydro-1H-pyrazol-4-yl]-N-ethyl-D-prolinamide]",18.7 nM
4,"CCN(C(=O)[C@@H]1CCCC[C@@H]1N)C1CN(/C(=N\C#N)Nc2cccc(OC(F)F)c2)N=C1c1ccc(Cl)c(Cl)c1 (mixture of isomers) [Example 43, (1R,2S)-2-amino-N-[1-{N′-cyano-N-[3-(difluoromethoxy)phenyl]carbamimidoyl}-3-(3,4-dichlorophenyl)-4,5-dihydro-1H-pyrazol-4-yl]-N-ethylcyclohexanecarboxamide]",432 nM
5,"CCN(C(=O)[C@@H]1CCC[C@@H]1N)C1CN(/C(=N\C#N)Nc2cc(OC)cc(C(F)(F)F)c2)N=C1c1ccc(Cl)c(Cl)c1 (mixture of isomers) [Example 45, (1R,2S)-2-Amino-N-[1-{N′-cyano-N-[3-methoxy-5-(trifluoromethyl)phenyl]carbamimidoyl}-3-(3,4-dichlorophenyl)-4,5-dihydro-1H-pyrazol-4-yl]-N-ethylcyclopentanecarboxamide]",239 nM
6,"N#C/N=C(/Nc1cccc(OC(F)F)c1)N1CC(NC(=O)C(N)(C2CC2)C2CC2)C(c2ccc(Cl)c(Cl)c2)=N1 (racemic) [Example 8, rac-2-Amino-N-[1-{N′-cyano-N-[3-(difluoromethoxy)phenyl]carbamimidoyl}-3-(3,4-dichlorophenyl)-4,5-dihydro-1H-pyrazol-4-yl]-2,2-dicyclopropylacetamide]",513 nM
7,"N#C/N=C(/Nc1cccc(OC(F)F)c1)N1CC(NC(=O)C2(N)CCC2)C(c2ccc(Cl)c(Cl)c2)=N1 (racemic) [Example 9, rac-1-Amino-N-[1-{N′-cyano-N-[3-(difluoromethoxy)phenyl]carbamimidoyl}-3-(3,4-dichlorophenyl)-4,5-dihydro-1H-pyrazol-4-yl]cyclobutanecarboxamide]",603 nM
8,"N#C/N=C(/Nc1cccc(OC(F)F)c1)N1CC(NC(=O)C2(N)CCCC2)C(c2ccc(Cl)c(Cl)c2)=N1 (racemic) [Example 10, rac-1-Amino-N-[1-{N′-cyano-N-[3-(difluoromethoxy)phenyl]carbamimidoyl}-3-(3,4-dichlorophenyl)-4,5-dihydro-1H-pyrazol-4-yl]cyclopentanecarboxamide]",748 nM
9,"N#C/N=C(/Nc1cccc(OC(F)F)c1)N1CC(NC(=O)C2(N)CCCCC2)C(c2ccc(Cl)c(Cl)c2)=N1 (racemic) [Example 11, rac-1-Amino-N-[1-{N′-cyano-N-[3-(difluoromethoxy)phenyl]carbamimidoyl}-3-(3,4-dichlorophenyl)-4,5-dihydro-1H-pyrazol-4-yl]cyclohexanecarboxamide]",1330 nM
10,"CCN(C(=O)[C@H]1C[C@@H](F)CN1)C1CN(/C(=N\C#N)Nc2cc(F)cc(OC(F)(F)F)c2)N=C1c1ccc(Cl)c(Cl)c1 (mixture of isomers) [Example 25, (4R)-N-[1-{N′-Cyano-N-[3-fluoro-5-(trifluoromethoxy)phenyl]carbamimidayl}-3-(3,4-dichlorophenyl)-4,5-dihydro-1H-pyrazol-4-yl]-N-ethyl-4-fluoro-D-prolinamide]",519 nM
11,"CCN(C(=O)[C@@H]1CCC[C@@H]1N)C1CN(/C(=N\C#N)Nc2cccc(OC(F)F)c2)N=C1c1ccc(Cl)c(Cl)c1 (relative stereo) [Example 42, Rel-(1R,2S)-2-amino-N-[1-{N′-cyano-N-[3-(difluoromethoxy)phenyl]carbamimidoyl}-3-(3,4-dichlorophenyl)-4,5-dihydro-1H-pyrazol-4-yl]-N-ethylcyclopentanecarboxamide]",194 nM
12,"CCN(C(=O)[C@H]1CCCN1)C1CN(/C(=N\C#N)Nc2cccc(OC(F)F)c2)N=C1c1ccc(Cl)c(Cl)c1 (single isomer, unassigned) [Example 1.2, N-[1-{N′-Cyano-N-[3-(difluoromethoxy)phenyl]carbamimidoyl}-3-(3,4-dichlorphenyl)-4,5-dihydro-1H-pyrazol-4-yl]-N-ethyl-D-prolinamide]",362 nM
13,"CCN(C(=O)[C@H]1C[C@@H](O)CN1)C1CN(/C(=N\C#N)Nc2cccc(OC(F)F)c2)N=C1c1ccc(Cl)c(Cl)c1 (single isomer, unassigned) [Example 3.2]",2240 nM
14,"CCN(C(=O)[C@H]1C[C@@H](F)CN1)C1CN(/C(=N\C#N)Nc2cccc(OC(F)F)c2)N=C1c1ccc(Cl)c(Cl)c1 (single isomer, unassigned) [Example 4.1]",39.9 nM
15,"CCN(C(=O)[C@H]1C[C@@H](F)CN1)C1CN(/C(=N\C#N)Nc2cccc(OC(F)F)c2)N=C1c1ccc(Cl)c(Cl)c1 (single isomer, unassigned) [Example 4.2]",663 nM
16,"CCN(C(=O)c1cccc(=O)[nH]1)C1CN(/C(=N\C#N)Nc2cccc(OC(F)F)c2)N=C1c1ccc(Cl)c(Cl)c1 (single isomer, unassigned) [Example 5.1, N-[1-{N′-Cyrano-N-[3-(difluoromethoxy)phenyl]carbamimidoyl}-3-(3,4-dichlorophenyl)-4,5-dihydro-1H-pyrazol-1-yl]-N-ethyl-6-oxo-1,6-dihydropyridine-2-carboxamide]",576 nM
17,"CCN(C(=O)c1cccc(=O)[nH]1)C1CN(/C(=N\C#N)Nc2cccc(OC(F)F)c2)N=C1c1ccc(Cl)c(Cl)c1 (single isomer, unassigned) [Example 5.2, N-[1-{N′-Cyano-N-[3-(difluoromethoxy)phenyl]carbamimidoyl}-3-(3,4-dichlorophenyl)-4,5-dihydro-1H-pyrazol-4-yl]-N-ethyl-6-oxo-1,6-dihydropyridine-2-carboxamide]",> 20000 nM
18,"C[C@]1(C(=O)NC2CN(/C(=N\C#N)Nc3cccc(OC(F)F)c3)N=C2c2ccc(Cl)c(Cl)c2)CCCN1 (single isomer, unassigned) [Example 6.1, N-[1-{N′-Cyano-N-[3-(difluoromethoxy)phenyl]carbamimidoyl}-3-(3,4-dichlorophenyl)-4,5-dihydro-1H-pyrazol-1-yl]-2-methyl-D-prolinamide]",12 nM
19,"C[C@]1(C(=O)NC2CN(/C(=N\C#N)Nc3cccc(OC(F)F)c3)N=C2c2ccc(Cl)c(Cl)c2)CCCN1 (single isomer, unassigned) [Example 6.2, N-[1-{N′-Cyano-N-[3-(difluoromethoxy)phenyl]carbamimidoyl}-3-(3,4-dichlorophenyl)-4,5-dihydro-1H-pyrazol-4-yl]-2-methyl-D-prolinamide]",237 nM
